The values below come from patent US10947252B2, “Inhibitors of KEAP1-Nrf2 protein-protein interaction” (Janssen Pharmaceutica NV, priority 2018, dated 2021).

The target in test [1] is Kelch domain of human KEAP1 (321-624 aa) (Homo sapiens (Human), UniProt Q14145). The experiment in a line: KEAP1 KELCH ThermoFluor binding assay.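 Also: Ligand-induced melting temperature shift of E. coli-expressed KEAP1 Kelch protein, Kd estimated from concentration-response curves of ΔTm.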 The conditions noted are these: KEAP Kelch […], 1,8-ANS, pH 7.0, average of results obtained, read-out: Tf Kd.
Test [2] relates to Glo-Response ARE-luc2P HEK293 cell line. The experiment in a line: ARE luciferase reporter cell-based assay.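 Also: luciferase signal tracks Nrf2 activation of the ARE once compounds disrupt KEAP1-Nrf2 binding, read with One-Glo reagent, DMSO serving as low control.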 The settings on record: Homo sapiens, HEK293, 24 h, average of results obtained. For orientation: A reporter such as luciferase makes a cellular process visible.

Sequence of Kelch domain of human KEAP1 (321-624 aa) (Q14145 321-624): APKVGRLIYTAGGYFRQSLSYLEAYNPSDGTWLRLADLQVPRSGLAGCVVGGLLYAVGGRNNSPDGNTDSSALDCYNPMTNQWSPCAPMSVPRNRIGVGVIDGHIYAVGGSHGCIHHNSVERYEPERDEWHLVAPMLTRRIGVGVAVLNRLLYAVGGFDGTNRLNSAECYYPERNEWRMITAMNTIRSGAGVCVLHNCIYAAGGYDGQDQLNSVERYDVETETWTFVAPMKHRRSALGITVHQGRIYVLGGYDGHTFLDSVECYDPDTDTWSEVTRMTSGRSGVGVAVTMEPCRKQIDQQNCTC

For orientation: Kd means the concentration at which binding is half-saturated. Broadly, the EC50 is the midpoint of the concentration-response curve. `Cc1ccc([C@H](c2ccn3c(C(F)(F)F)nnc3c2C)C(C)(C)C(=O)O)cc1CN1CC2(CCOCC2)Oc2nc(N[C@H](C)CN3CCOCC3)c(C)cc2S1(=O)=O` (single isomer, unassigned) [Example 362, (*R)-2,2-Dimethyl-3-(4-methyl-3-((8′-methyl-7′-(((R-1-morpholinopropan-2-yl)amino)-1′,1′-dioxido-2,3,5,6-tetrahydrospiro[pyran-4,4′-pyrido[2,3-b][1,4,5]oxathiazepin]-2′(3′H)-yl)methyl)phenyl)-3-(8-methyl-3-(trifluoromethyl)-[1,2,4]triazolo[4,3-a]pyridine-7-yl)propanoic Acid]: the Kd in test [1] was less than 1 nM. The EC50 in test [2] turned out to be 20.5 nM.
Consider `Cc1ccc([C@@H](c2ccn3c(C4CC4)nnc3c2C)C(C)(C)C(=O)O)cc1CN1CC2(CC2)Oc2nc(OCCN3CCCC3)c(C)cc2S1(=O)=O` (single isomer, unassigned) [Example 663, (*S)-3-(3-Cyclopropyl-8-methyl-[1,2,4]triazolo[4,3-a]pyridin-7-yl)-2,2-dimethyl-3-(4-methyl-3-((8′-methyl-1′,1′-dioxido-7′-(2-(pyrrolidin-1-yl)ethoxy)spiro[cyclopropane-1,4′-pyrido[2,3-b][1,4,5]oxathiazepin]-2′(3′H)-yl)methyl)phenyl)propanoic Acid], for which the Kd in test [1] was less than 1 nM. In test [2], this compound gave an EC50 of 57.5 nM.
Taken in the same sequence, the figures for `Cc1ccc([C@H](c2ccn3c(C(F)(F)F)nnc3c2C)C(C)(C)C(=O)O)nc1CN1CC2(CCOCC2)Oc2ncccc2S1(=O)=O` (single isomer, unassigned) [Example 39, (*R)-3-(6-((1′,1′-Dioxido-2,3,5,6-tetrahydrospiro[pyran-4,4′-pyrido[2,3-b][1,4,5]oxathiazepin]-2′(3′H)-yl)methyl)-5-methylpyridin-2-yl)-2,2-dimethyl-3-(8-methyl-3-(trifluoromethyl)-[1,2,4]triazolo[4,3-a]pyridin-7-yl)propanoic Acid] were 4250 nM and 1260 nM.
Regarding `Cc1ccc([C@@H](c2ccn3c(C(F)(F)F)nnc3c2C)C(C)(C)C(=O)O)cc1CN1C[C@@H]2CCCCN2c2ncc(C#N)cc2S1(=O)=O` (single isomer, unassigned) [Example 424, (*S)-3-(3-(((*S)-3-cyano-5,5-dioxido-7,7a,8,9,10,11-hexahydro-6H-dipyrido[2,1-d:2′,3′-f][1,2,5]thiadiazepin-6-yl)methyl)-4-methylphenyl)-2,2-dimethyl-3-(8-methyl-3-(trifluoromethyl)-[1,2,4]triazolo[4,3-a]pyridin-7-yl)propanoic Acid], the Kd in test [1] was less than 1 nM. This compound also showed an EC50 in test [2] of 1.65 nM.
The matching figures for `Cc1ccc(C(CC(=O)O)c2ccc3c(nnn3CC3CC3)c2C)cc1CN1C[C@H]2CCCCN2c2ncccc2S1(=O)=O` (mixture of isomers) [Example 234, (R/S)-3-(1-(Cyclopropylmethyl)-4-methyl-1H-benzo[d][1,2,3]triazol-5-yl)-3-(3-(((*R)-5,5-dioxido-7,7a,8,9,10,11-hexahydro-6H-dipyrido[2,1-d:2′,3′-f][1,2,5]thiadiazepin-6-yl)methyl)-4-methylphenyl)propanoic Acid]: less than 1 nM and 3.3 nM.
In the case of `CC[C@@H]1CN(Cc2cc(C(CC(=O)O)c3ccn4c(C(F)(F)F)nnc4c3)ccc2C)S(=O)(=O)c2cccnc2O1` (stereo partly drawn) [Example 256, 3-(3-(((R)-4-Ethyl-1,1-dioxido-3,4-dihydro-2H-pyrido[2,3-b][1,4,5]oxathiazepin-2-yl)methyl)-4-methylphenyl)-3-(3-(trifluoromethyl)-[1,2,4]triazolo[4,3-a]pyridin-7-yl)propanoic Acid], in test [1], the Kd is less than 1 nM. Further, the EC50 in test [2] was 379 nM.
`Cc1ncc([C@@H](c2ccc3c(nnn3C3CC3)c2C)C(C)(C)C(=O)O)cc1CN1CC2(CCOCC2)Oc2ncccc2S1(=O)=O` (single isomer, unassigned) [Example 45, (*R)-3-(1-Cyclopropyl-4-methyl-1H-benzo[d][1,2,3]triazol-5-yl)-3-(5-((1′,1′-dioxido-2,3,5,6-tetrahydrospiro[pyran-4,4′-pyrido[2,3-b][1,4,5]oxathiazepin]-2′(3′H)-yl)methyl)-6-methylpyridin-3-yl)-2,2-dimethylpropanoic Acid]: the Kd in test [1] came out at 42600 nM. The EC50 in test [2] came out at 6560 nM.
Taken in the same sequence, the figures for `Cc1ccc([C@@H](CC(=O)O)c2ccn3c(C(F)F)nnc3c2C)cc1CN1C[C@H]2CCCN2c2ncccc2S1(=O)=O` (single isomer, unassigned) [Example 451, (*R)-3-(3-(Difluoromethyl)-8-methyl-[1,2,4]triazolo[4,3-a]pyridin-7-yl)-3-(3-(((R)-5,5-dioxido-7a,8,9,10-tetrahydropyrido[2,3-f]pyrrolo[2,1-d][1,2,5]thiadiazepin-6(7H)-yl)methyl)-4-methylphenyl)propanoic Acid] were less than 1 nM and 265 nM.
As to `Cc1ccc([C@@H](c2ccn3c(C(F)(F)F)nnc3c2C)C(C)(C)C(=O)O)cc1CN1CC2(CCOCC2)Oc2nc(CCC(N)=O)ccc2S1(=O)=O` (single isomer, unassigned) [Example 599, (*S)-3-(3-((7′-(3-amino-3-oxopropyl)-1′,1′-dioxido-2,3,5,6-tetrahydrospiro[pyran-4,4′-pyrido[2,3-b][1,4,5]oxathiazepin]-2′(3′H)-yl)methyl)-4-methylphenyl)-2,2-dimethyl-3-(8-methyl-3-(trifluoromethyl)-[1,2,4]triazolo[4,3-a]pyridine-7-yl)propanoic Acid], in test [1], the Kd is less than 1 nM. In addition, in test [2], the EC50 was 246 nM.
Taken in the same sequence, the figures for `Cc1ccc([C@@H](CC(=O)O)c2ccn3c(C(F)F)nnc3c2C)cc1CN1C[C@H]2CCCCN2c2ncc(C#N)cc2S1(=O)=O` (single isomer, unassigned) [Example 30, (*R)-3-(3-(((*R)-3-Cyano-5,5-dioxido-7,7a,8,9,10,11-hexahydro-6H-dipyrido[2,1-d:2′,3′-f][1,2,5]thiadiazepin-6-yl)methyl)-4-methylphenyl)-3-(3-(difluoromethyl)-8-methyl-[1,2,4]triazolo[4,3-a]pyridin-7-yl)propanoic Acid] were less than 1 nM and 73.7 nM.
Taken in the same sequence, the figures for `Cc1ccc([C@@H](c2ccn3c(C(F)(F)F)nnc3c2C)C(C)(C)C(=O)O)cc1CN1CC(C)(C)Oc2ncccc2S1(=O)=O` (single isomer, unassigned) [Example 430, (*S)-3-(3-((4,4-dimethyl-1,1-dioxido-3,4-dihydro-2H-pyrido[2,3-b][1,4,5]oxathiazepin-2-yl)methyl)-4-methylphenyl)-2,2-dimethyl-3-(8-methyl-3-(trifluoromethyl)-[1,2,4]triazolo[4,3-a]pyridin-7-yl)propanoic Acid] were 7830 nM and 647 nM.
In the case of `Cc1cnc2c(c1)S(=O)(=O)N(Cc1nc([C@@H](c3ccn4c(C(F)F)nnc4c3C)C(C)(C)C(=O)O)ccc1C)CC1(COC1)O2` (single isomer, unassigned) [Example 627, (*S)-3-(3-(Difluoromethyl)-8-methyl-[1,2,4]triazolo[4,3-a]pyridin-7-yl)-2,2-dimethyl-3-(5-methyl-6-((8′-methyl-1′,1′-dioxidospiro[oxetane-3,4′-pyrido[2,3-b][1,4,5]oxathiazepin]-2′(3′H)-yl)methyl)pyridin-2-yl)propanoic Acid], the Kd in test [1] is less than 1 nM. The same compound had an EC50 in test [2] of 1.35 nM.
With `Cc1ccc2c(n1)OC1(CC1)CN(Cc1cc([C@H](CC(=O)O)c3ccn4c(C(F)(F)F)nnc4c3C)ccc1C)S2(=O)=O` (single isomer, unassigned) [Example 538, (*S)-3-(4-Methyl-3-((7′-methyl-1′,1′-dioxidospiro[cyclopropane-1,4′-pyrido[2,3-b][1,4,5]oxathiazepin]-2′(3′H)-yl)methyl)phenyl)-3-(8-methyl-3-(trifluoromethyl)-[1,2,4]triazolo[4,3-a]pyridin-7-yl)propanoic Acid], the equilibrium dissociation constant (Kd) in test [1] is less than 1 nM. Besides, in test [2], the EC50 amounted to 58.9 nM.
Consider `Cc1ccc([C@@H](CC(=O)O)c2ccn3c(C(F)(F)F)nnc3c2C)cc1CN1C[C@]2(C)CCCN2c2ncccc2S1(=O)=O` (single isomer, unassigned) [Example 187, (*R)-3-(4-Methyl-3-(((*S)-7a-methyl-5,5-dioxido-7a,8,9,10-tetrahydropyrido[2,3-f]pyrrolo[2,1-d][1,2,5]thiadiazepin-6(7H)-yl)methyl)phenyl)-3-(8-methyl-3-(trifluoromethyl)-[1,2,4]triazolo[4,3-a]pyridin-7-yl)propanoic Acid], for which the Kd in test [1] was less than 1 nM. In test [2], this compound had an EC50 of 550 nM.
`Cc1ccc([C@@H](CC(=O)O)c2ccn3c(C(F)(F)F)nnc3c2C)cc1CN1CC2(CC2)Oc2ncccc2S1(=O)=O` (single isomer, unassigned) [Example 8, (*R)-3-(3-((1′,1′-dioxidospiro[cyclopropane-1,4′-pyrido[2,3-b][1,4,5]oxathiazepin]-2′(3′H)-yl)methyl)-4-methylphenyl)-3-(8-methyl-3-(trifluoromethyl)-[1,2,4]triazolo[4,3-a]pyridin-7-yl)propanoic Acid]: the Kd in test [1] turned out to be 0.188 nM. For the same compound, the EC50 in test [2] came out at 660 nM.
On to `CC[C@@H]1CN(Cc2cc([C@@H](CC(=O)O)c3cc(OC(F)F)c4c(c3)nnn4C)ccc2C)S(=O)(=O)c2cccnc2O1` (single isomer, unassigned) [Example 251, (*R)-3-(7-(Difluoromethoxy)-1-methyl-1H-benzo[d][1,2,3]triazol-5-yl)-3-(3-(((R)-4-ethyl-1,1-dioxido-3,4-dihydro-2H-pyrido[2,3-b][1,4,5]oxathiazepin-2-yl)methyl)-4-methylphenyl)propanoic Acid], for which the Kd in test [1] was less than 1 nM. Besides, the EC50 in test [2] amounted to 24.1 nM.
